Like-named read-outs stand apart in the source and are kept apart here.

Assay [1] addresses NSD2 [1-1365] (Homo sapiens (Human), UniProt O96028). The assay is described as follows: LC-MS/MS-based NSD2 enzymatic assay (SAH production). It is filed as biochemical. Conditions: read-out: NSD2 IC50. The gist of the method:
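SAH formed was measured by LC-MS/MS using d4-SAH as internal standard and an SAH calibration curve. Compounds were preincubated 20 min with NSD2 [1-1365] and SAM; mouse-liver nucleosome then started a 90 min room-temperature reaction (8 nM enzyme, 1 μM SAM, 400 nM nucleosome final, pH 8.0), stopped with TFA.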

The test system of assay [2] is cellular H3K36me2 level in multiple myeloma cell line KMS11 (t(4;14)+). Description: H3K36me2 cellular ELISA assay in KMS11-Par line. In kind it is cell-based. To be noted: Homo sapiens, KMS-11, ELISA, read-out: H3K36me2 ELISA in KMS11-Par. As for the experimental part:
H3K36Me2 Cellular ELISA Assay in KMS11-Par Line
An ELISA (enzyme-linked immunosorbent assay) based assay was used to test the ability of candidate compound to reduce cellular H3K36me2 level in multiple myeloma cell line KMS11 (t(4;14)+). KMS11 (Horizon Discovery Ltd.) cells are maintained in RPM11640 media with 12.5% FBS and 50 U/ml Penicillin-Streptomycin. For assay compound treatment, single cell suspension was prepared in Opti-MEM supplemented with B-27 and N2 supplement (Invitrogen 11058-021, 17504-044, 17502-048) for ELISA and in maintenance media for cellTiter Glo (CTG) viability assay. One day prior to cell treatment, 1,250 KMS11 cells were seeded into 384-well Greiner CellStar TC plate (Greiner #781086) at the final volume of 30 μL/well.
Cells were treated with tested compounds at the desired concentration for 72 hours. Crude histone lysate was extracted by 0.4M HCl following neutralization by 0.5M Sodium phosphate, dibasic (Na2HPO4), pH ˜12.5. Equal amount of histone lysate was loaded to Corning 384-well high biding plate (Corning #3577, black) for H3K36m2 and to Thermo 384-well high binding Nunc plate (Thermo #460372, white) for total H3.
Histone bound plates were washed and blocked with 5% BSA. […] The abundance of H3K36me2 and total H3 was measured by Chemiluminesce on a plate reader. Cell viability was monitored on a parallel seeded plate with CellTiter-Glo reagent (Promega #G7573).

Where [3] appears, read: NSD2 biochemical activity, class symbols.
The mark [4] stands for this setting: KMS11-Par line (t(4;14)+), 72 hours treatment.

Chain of NSD2 [1-1365] (O96028 whole entry): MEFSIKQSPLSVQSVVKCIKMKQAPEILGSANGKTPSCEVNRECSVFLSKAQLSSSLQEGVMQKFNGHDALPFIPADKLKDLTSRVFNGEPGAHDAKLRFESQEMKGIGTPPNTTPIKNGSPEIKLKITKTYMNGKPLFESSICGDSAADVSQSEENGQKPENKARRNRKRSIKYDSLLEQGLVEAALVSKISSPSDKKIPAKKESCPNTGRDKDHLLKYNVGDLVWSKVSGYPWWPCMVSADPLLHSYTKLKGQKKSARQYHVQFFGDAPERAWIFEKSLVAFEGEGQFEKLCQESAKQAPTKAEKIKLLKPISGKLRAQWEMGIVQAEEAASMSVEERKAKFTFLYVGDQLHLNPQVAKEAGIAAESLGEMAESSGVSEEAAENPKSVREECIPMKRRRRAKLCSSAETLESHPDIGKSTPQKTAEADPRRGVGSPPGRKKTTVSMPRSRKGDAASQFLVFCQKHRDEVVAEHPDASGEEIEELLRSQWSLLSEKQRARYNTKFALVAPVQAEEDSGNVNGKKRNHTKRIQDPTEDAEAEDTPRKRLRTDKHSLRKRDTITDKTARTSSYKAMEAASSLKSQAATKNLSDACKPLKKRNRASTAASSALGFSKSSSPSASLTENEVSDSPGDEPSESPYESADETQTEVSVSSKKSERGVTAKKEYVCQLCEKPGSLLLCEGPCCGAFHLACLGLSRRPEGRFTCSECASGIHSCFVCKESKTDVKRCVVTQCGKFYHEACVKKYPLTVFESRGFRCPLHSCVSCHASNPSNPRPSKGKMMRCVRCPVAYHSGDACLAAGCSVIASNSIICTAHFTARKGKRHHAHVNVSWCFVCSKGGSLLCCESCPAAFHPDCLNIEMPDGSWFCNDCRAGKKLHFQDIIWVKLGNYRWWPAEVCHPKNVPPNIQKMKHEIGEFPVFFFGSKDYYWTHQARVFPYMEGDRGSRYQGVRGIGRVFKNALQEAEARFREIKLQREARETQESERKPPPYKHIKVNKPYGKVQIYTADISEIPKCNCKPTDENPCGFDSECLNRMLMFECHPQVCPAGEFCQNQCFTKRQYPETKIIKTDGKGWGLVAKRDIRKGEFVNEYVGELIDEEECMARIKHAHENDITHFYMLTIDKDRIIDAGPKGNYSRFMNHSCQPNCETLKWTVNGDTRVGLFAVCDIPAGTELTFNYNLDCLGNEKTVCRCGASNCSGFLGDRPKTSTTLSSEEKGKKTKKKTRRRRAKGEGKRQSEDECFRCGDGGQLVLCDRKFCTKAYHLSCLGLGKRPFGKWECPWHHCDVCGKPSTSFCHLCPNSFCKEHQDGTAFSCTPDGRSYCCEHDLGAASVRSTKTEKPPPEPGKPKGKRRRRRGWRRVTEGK

As to `Nc1ncnc2c1ncn2Cc1cc(-c2ccc(F)c(F)c2)ncc1N1CCCC(N)(c2ccn(C3CC3)n2)C1` (centres unmarked) [Example 278, 9-((5-(3-amino-3-(1-cyclopropyl-1H-pyrazol-3-yl)piperidin-1-yl)-2-(3,4-difluorophenyl)pyridin-4-yl)methyl)-9H-purin-6-amine], the IC50 is 1 to 10 nM in assay [1] and 475 nM in assay [2] (KMS11-Par line, 72 hours).
`Nc1ncnc2c1ncn2Cc1cc(-c2ccc(F)c(F)c2)ncc1N1CCCC(N)(C=C(F)F)C1` (centres unmarked) [Example 294, 9-((5-(3-amino-3-(2,2-difluorovinyl)piperidin-1-yl)-2-(3,4-difluorophenyl)pyridin-4-yl)methyl)-9H-purin-6-amine]: the IC50 was 10 to 1000 nM in assay [1] and 9440 nM in assay [2] (KMS11-Par line, 72 hours).
In the same order, the values of `Nc1ncnc2c1ncn2Cc1cc(-c2ccc(F)c(F)c2)ncc1N1CCCC(N)(c2cccnc2)C1` (centres unmarked) [Example 271, 9-((5-(3-amino-3-(pyridin-3-yl)piperidin-1-yl)-2-(3,4-difluorophenyl)pyridin-4-yl)methyl)-9H-purin-6-amine] are > 1000 nM and 33300 nM.
Regarding `COc1ccc(-c2cc(Cn3cnc4c(N)nccc43)c(N3CCC[C@](N)(Cc4nccs4)C3)cn2)cc1F` [Example 57, (S)-1-((5-(3-amino-3-(thiazol-2-ylmethyl)piperidin-1-yl)-2-(3-fluoro-4-methoxyphenyl)pyridin-4-yl)methyl)-1H-imidazo[4,5-c]pyridin-4-amine], the IC50 in assay [1] (setting [3]) was 1 to 10 nM; in assay [2] (setting [4]) it was 610 nM.
In the same order, the values of `CCO[C@H](C)C1(N)CCCN(c2cnc(-c3ccc(F)c(F)c3)cc2Cn2cnc3c(N)ncnc32)C1` (stereo partly drawn) [Example 99, 9-((5-(3-amino-3-((R)-1-ethoxyethyl)piperidin-1-yl)-2-(3,4-difluorophenyl)pyridin-4-yl)methyl)-9H-purin-6-amine] are 10 to 1000 nM and 21000 nM.
In the same order, the values of `Nc1ncnc2c1ncn2Cc1cc(-c2ccc(NC(=O)CCBr)cc2)ncc1N1CCCC(N)(CC(F)F)C1` (centres unmarked) [Example 64, N-(4-(5-(3-amino-3-(2,2-difluoroethyl)piperidin-1-yl)-4-((6-amino-9H-purin-9-yl)methyl)pyridin-2-yl)phenyl)-3-bromopropanamide] are 10 to 1000 nM and 7000 nM.
Regarding `Cc1cc([C@@]2(N)CCCN(c3cnc(-c4ccc(F)c(F)c4)cc3Cn3cnc4c(N)ncnc43)C2)ccn1` [Example 247, (S)-9-((5-(3-amino-3-(2-methylpyridin-4-yl)piperidin-1-yl)-2-(3,4-difluorophenyl)pyridin-4-yl)methyl)-9H-purin-6-amine], the IC50 in assay [1] is 10 to 1000 nM; in assay [2] (KMS11-Par line, 72 hours) it was 33300 nM.
In the same order, the values of `CCc1cccc([C@@]2(N)CCCN(c3cnc(C4CC4)cc3Cn3cnc4c(N)nccc43)C2)n1` [Example 252, (R)-1-((5-(3-amino-3-(6-ethylpyridin-2-yl)piperidin-1-yl)-2-cyclopropylpyridin-4-yl)methyl)-1H-imidazo[4,5-c]pyridin-4-amine] are 10 to 1000 nM and 7250 nM.
In the same order, the values of `Cc1cccc(C2(N)CCCN(c3cnc(C4CC4)cc3Cn3cnc4c(N)nccc43)C2)n1` (centres unmarked) [Example 263, 1-((5-(3-amino-3-(6-methylpyridin-2-yl)piperidin-1-yl)-2-cyclopropylpyridin-4-yl)methyl)-1H-imidazo[4,5-c]pyridin-4-amine] are 10 to 1000 nM and 4170 nM.
Regarding `Cc1cc2c(cnn2C)cc1-c1cc(Cn2cnc3c(N)ncnc32)c(N2CCC[C@](N)([C@@H](O)C(F)F)C2)cn1` [Example 136, (R)-1-((R)-3-amino-1-(4-((6-amino-9H-purin-9-yl)methyl)-6-(1,6-dimethyl-1H-indazol-5-yl)pyridin-3-yl)piperidin-3-yl)-2,2-difluoroethan-1-ol], the IC50 in assay [1] (setting [3]) was 10 to 1000 nM; in assay [2] (setting [4]), 8800 nM.
With `Nc1nccc2c1ncn2Cc1cc(-c2ccc(F)cc2)ncc1N1CCCC(N)(c2ccn(C3CC3)n2)C1` (centres unmarked) [Example 280, 1-((5-(3-amino-3-(1-cyclopropyl-1H-pyrazol-3-yl)piperidin-1-yl)-2-(4-fluorophenyl)pyridin-4-yl)methyl)-1H-imidazo[4,5-c]pyridin-4-amine], the IC50 in assay [1] is 1 to 10 nM; in assay [2] (KMS11-Par line, 72 hours), 1490 nM.
For `Cn1ccc(C[C@@]2(N)CCCN(c3cnc(-c4ccc(F)cc4)cc3Cn3cnc4c(N)nccc43)C2)n1` [Example 49, (S)-1-((5-(3-amino-3-((1-methyl-1H-pyrazol-3-yl)methyl)piperidin-1-yl)-2-(4-fluorophenyl)pyridin-4-yl)methyl)-1H-imidazo[4,5-c]pyridin-4-amine], the IC50 in assay [1] (setting [3]) was 1 to 10 nM; in assay [2] (setting [4]), 12700 nM.
On to `COc1ccc(-c2cc(Cn3cnc4c(N)nccc43)c(N3CCC[C@](N)(Cc4ccccn4)C3)cn2)cc1F` [Example 50, (S)-1-((5-(3-amino-3-(pyridin-2-ylmethyl)piperidin-1-yl)-2-(3-fluoro-4-methoxyphenyl)pyridin-4-yl)methyl)-1H-imidazo[4,5-c]pyridin-4-amine], for which the IC50 in assay [1] (setting [3]) was 1 to 10 nM; in assay [2] (setting [4]) it was 895 nM.
`Nc1ncnc2c1ncn2Cc1cc(-c2ccc(F)c(F)c2)ncc1N1CCC[C@](N)(c2ncccc2F)C1` [Example 199, (R)-9-((5-(3-amino-3-(3-fluoropyridin-2-yl)piperidin-1-yl)-2-(3,4-difluorophenyl)pyridin-4-yl)methyl)-9H-purin-6-amine]: the IC50 in assay [1] is 1 to 10 nM; in assay [2] (KMS11-Par line, 72 hours), 846 nM.
Regarding `C[C@@H](c1ccccn1)[C@@]1(N)CCCN(c2cnc(-c3ccc(F)c(F)c3)cc2Cn2cnc3c(N)ncnc32)C1` [Example 65, 9-((5-((S)-3-amino-3-((R)-1-(pyridin-2-yl)ethyl)piperidin-1-yl)-2-(3,4-difluorophenyl)pyridin-4-yl)methyl)-9H-purin-6-amine], the IC50 was 10 to 1000 nM in assay [1] (setting [3]) and 1130 nM in assay [2] (setting [4]).
Turning to `Nc1nccc2c1ncn2Cc1cc(-c2ccc(F)c(F)c2)ncc1N1CCC[C@](N)(Cc2ncco2)C1` [Example 63, (S)-1-((5-(3-amino-3-(oxazol-2-ylmethyl)piperidin-1-yl)-2-(3,4-difluorophenyl)pyridin-4-yl)methyl)-1H-imidazo[4,5-c]pyridin-4-amine], the values for the IC50 in assay [1] (setting [3]) and in assay [2] (setting [4]) were 10 to 1000 nM and 7910 nM, respectively.
For the compound `Nc1nccc2c1ncn2Cc1cc(-c2ccc(F)c(F)c2)ncc1N1CCCC(N)(c2cccc(F)n2)C1` (centres unmarked) [Example 262, 1-((5-(3-amino-3-(6-fluoropyridin-2-yl)piperidin-1-yl)-2-(3,4-difluorophenyl)pyridin-4-yl)methyl)-1H-imidazo[4,5-c]pyridin-4-amine], the IC50 was 10 to 1000 nM in assay [1] and 1330 nM in assay [2] (KMS11-Par line, 72 hours).
As for `Nc1ncnc2c1ncn2Cc1cc(-c2ccc(F)c(F)c2)ncc1N1CCCC(N)(c2cncc(Cl)n2)C1` (centres unmarked) [Example 254, 9-((5-(3-amino-3-(6-chloropyrazin-2-yl)piperidin-1-yl)-2-(3,4-difluorophenyl)pyridin-4-yl)methyl)-9H-purin-6-amine], the IC50 in assay [1] is 10 to 1000 nM; in assay [2] (KMS11-Par line, 72 hours), 1540 nM.
Consider `C=CC(=O)Nc1ccc(-c2cc(Cn3cnc4c(N)ncnc43)c(N3CCCC(N)(CC(F)F)C3)cn2)cc1` (centres unmarked) [Example 76, N-(4-(5-(3-amino-3-(2,2-difluoroethyl)piperidin-1-yl)-4-((6-amino-9H-purin-9-yl)methyl)pyridin-2-yl)phenyl)acrylamide], for which the figures for the IC50 in assay [1] (setting [3]) and in assay [2] (setting [4]) were 10 to 1000 nM and 2120 nM, respectively.

The values are drawn from patent publication US11420970B1 (NOVARTIS AG, priority 2019, dated 2022).
